# Experimental data reported in PubChem BioAssay (NCI).
#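 In this assay, cells in 96-well plates receive the compound at five concentrations for 48 hours. Endpoints are linearly interpolated between the surrounding concentrations. Abbreviation: GI50, concentration required for 50% inhibition of growth. TGI denotes the concentration required for complete inhibition of growth.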
# What was measured:
# Test in all cases: NCI tumour cell line growth inhibition, 48 h
# LOX IMVI melanoma = tested on: LOX IMVI melanoma
# SNB-75 CNS = tested on: SNB-75 CNS
# NCI-H23 lung = tested on: NCI-H23 lung
# MDA-MB-231 breast = tested on: MDA-MB-231 breast
# HCC-2998 colon = tested on: HCC-2998 colon
# SK-MEL-2 melanoma = tested on: SK-MEL-2 melanoma
# OVCAR-3 ovarian = tested on: OVCAR-3 ovarian
# NCI/ADR-RES ovarian = tested on: NCI/ADR-RES ovarian
# M14 melanoma = tested on: M14 melanoma
# SN12C renal = tested on: SN12C renal
# HOP-92 NSCLC = tested on: HOP-92 NSCLC
# CCRF-CEM leukemia = tested on: CCRF-CEM leukemia
# UO-31 renal = tested on: UO-31 renal
# TK-10 renal = tested on: TK-10 renal
# BT-549 breast = tested on: BT-549 breast
# SF-295 CNS = tested on: SF-295 CNS
# CAKI-1 renal = tested on: CAKI-1 renal
# EKVX NSCLC = tested on: EKVX NSCLC
# OVCAR-8 ovarian = tested on: OVCAR-8 ovarian
# HOP-62 NSCLC = tested on: HOP-62 NSCLC
# IGROV1 ovarian = tested on: IGROV1 ovarian
# RXF 393 renal = tested on: RXF 393 renal
# HS 578T breast = tested on: HS 578T breast
# HCT-15 colon = tested on: HCT-15 colon
# MOLT-4 leukemia = tested on: MOLT-4 leukemia
# NCI-H226 lung = tested on: NCI-H226 lung
# RPMI-8226 leukemia = tested on: RPMI-8226 leukemia
# SW-620 colon = tested on: SW-620 colon
# U251 CNS = tested on: U251 CNS
# SK-MEL-5 melanoma = tested on: SK-MEL-5 melanoma
# A498 renal = tested on: A498 renal
# SF-268 CNS = tested on: SF-268 CNS
# MDA-MB-435 = tested on: MDA-MB-435
# NCI-H522 lung = tested on: NCI-H522 lung
# 786-0 renal = tested on: 786-0 renal
# SNB-19 CNS = tested on: SNB-19 CNS
# K-562 leukemia = tested on: K-562 leukemia
# COLO 205 colon = tested on: COLO 205 colon
# OVCAR-5 ovarian = tested on: OVCAR-5 ovarian
# NCI-H460 lung = tested on: NCI-H460 lung
# OVCAR-4 ovarian = tested on: OVCAR-4 ovarian
# MCF7 breast = tested on: MCF7 breast
# MALME-3M melanoma = tested on: MALME-3M melanoma
# KM12 colon = tested on: KM12 colon
# PC-3 prostate = tested on: PC-3 prostate
# SK-OV-3 ovarian = tested on: SK-OV-3 ovarian
# ACHN renal = tested on: ACHN renal
# UACC-62 melanoma = tested on: UACC-62 melanoma
# DU-145 prostate = tested on: DU-145 prostate
# HL-60(TB) leukemia = tested on: HL-60(TB) leukemia
# SK-MEL-28 melanoma = tested on: SK-MEL-28 melanoma
compound,measurement,setting,value
COc1cc(-c2nc(-c3nnc(-c4ccc(F)c(Cl)c4)o3)c3ccccn23)cc(OC)c1OC,GI50,LOX IMVI melanoma,3.83 µM
same,TGI,LOX IMVI melanoma,> 100 µM
same,GI50,SNB-75 CNS,1.3 µM
same,TGI,SNB-75 CNS,3.46 µM
same,GI50,NCI-H23 lung,4 µM
same,TGI,NCI-H23 lung,> 100 µM
same,GI50,MDA-MB-231 breast,2.15 µM
same,TGI,MDA-MB-231 breast,14.7 µM
same,GI50,HCC-2998 colon,5.64 µM
same,TGI,HCC-2998 colon,> 100 µM
same,GI50,SK-MEL-2 melanoma,2.27 µM
same,TGI,SK-MEL-2 melanoma,5.59 µM
same,GI50,OVCAR-3 ovarian,2.76 µM
same,TGI,OVCAR-3 ovarian,8.69 µM
same,GI50,NCI/ADR-RES ovarian,1.88 µM
same,TGI,NCI/ADR-RES ovarian,5.24 µM
same,GI50,M14 melanoma,3.27 µM
same,TGI,M14 melanoma,> 100 µM
same,GI50,SN12C renal,2.42 µM
same,TGI,SN12C renal,> 100 µM
same,GI50,HOP-92 NSCLC,1.55 µM
same,TGI,HOP-92 NSCLC,6.26 µM
same,GI50,CCRF-CEM leukemia,> 100 µM
same,TGI,CCRF-CEM leukemia,> 100 µM
same,GI50,UO-31 renal,2.2 µM
same,TGI,UO-31 renal,7.64 µM
same,GI50,TK-10 renal,2.4 µM
same,TGI,TK-10 renal,5.9 µM
same,GI50,BT-549 breast,1.67 µM
same,TGI,BT-549 breast,4.46 µM
same,GI50,SF-295 CNS,3.09 µM
same,TGI,SF-295 CNS,> 100 µM
same,GI50,CAKI-1 renal,5.46 µM
same,TGI,CAKI-1 renal,> 100 µM
same,GI50,EKVX NSCLC,4.19 µM
same,TGI,EKVX NSCLC,> 100 µM
same,GI50,OVCAR-8 ovarian,1.69 µM
same,TGI,OVCAR-8 ovarian,4.44 µM
same,GI50,HOP-62 NSCLC,2.19 µM
same,TGI,HOP-62 NSCLC,4.57 µM
same,GI50,IGROV1 ovarian,3.61 µM
same,TGI,IGROV1 ovarian,> 100 µM
same,GI50,RXF 393 renal,2.62 µM
same,TGI,RXF 393 renal,7 µM
same,GI50,HS 578T breast,2.51 µM
same,TGI,HS 578T breast,29.2 µM
same,GI50,HCT-15 colon,4.55 µM
same,TGI,HCT-15 colon,> 100 µM
same,GI50,MOLT-4 leukemia,> 100 µM
same,TGI,MOLT-4 leukemia,> 100 µM
same,GI50,NCI-H226 lung,2.38 µM
same,TGI,NCI-H226 lung,6.07 µM
same,GI50,RPMI-8226 leukemia,1.79 µM
same,TGI,RPMI-8226 leukemia,5.65 µM
same,GI50,SW-620 colon,3.05 µM
same,TGI,SW-620 colon,> 100 µM
same,GI50,U251 CNS,1.86 µM
same,TGI,U251 CNS,4.43 µM
same,GI50,SK-MEL-5 melanoma,3.03 µM
same,TGI,SK-MEL-5 melanoma,> 100 µM
same,GI50,A498 renal,1.55 µM
same,TGI,A498 renal,6.76 µM
same,GI50,SF-268 CNS,2.03 µM
same,TGI,SF-268 CNS,5.48 µM
same,GI50,MDA-MB-435,3.09 µM
same,TGI,MDA-MB-435,> 100 µM
same,GI50,NCI-H522 lung,1.92 µM
same,TGI,NCI-H522 lung,4.66 µM
same,GI50,786-0 renal,2.93 µM
same,TGI,786-0 renal,78.8 µM
same,GI50,SNB-19 CNS,1.93 µM
same,TGI,SNB-19 CNS,5.36 µM
same,GI50,K-562 leukemia,4.34 µM
same,TGI,K-562 leukemia,> 100 µM
same,GI50,COLO 205 colon,4.68 µM
same,TGI,COLO 205 colon,> 100 µM
same,GI50,OVCAR-5 ovarian,4.57 µM
same,TGI,OVCAR-5 ovarian,> 100 µM
C=C(C)[C@@H]1CC[C@]2(C(=O)Nc3ccccn3)CC[C@]3(C)[C@H](CC[C@@H]4[C@@]5(C)CCCNC(C)(C)[C@@H]5CC[C@]43C)[C@@H]12,GI50,SNB-75 CNS,1.72 µM
same,TGI,SNB-75 CNS,5.89 µM
same,GI50,NCI-H23 lung,1.85 µM
same,TGI,NCI-H23 lung,3.77 µM
same,GI50,OVCAR-3 ovarian,1.54 µM
same,TGI,OVCAR-3 ovarian,2.92 µM
same,GI50,NCI/ADR-RES ovarian,1.93 µM
same,TGI,NCI/ADR-RES ovarian,4.14 µM
same,GI50,NCI-H460 lung,1.71 µM
same,TGI,NCI-H460 lung,3.3 µM
same,GI50,SN12C renal,1.57 µM
same,TGI,SN12C renal,2.92 µM
same,GI50,HOP-92 NSCLC,2.06 µM
same,TGI,HOP-92 NSCLC,7.64 µM
same,GI50,CCRF-CEM leukemia,3.02 µM
same,TGI,CCRF-CEM leukemia,> 100 µM
same,GI50,UO-31 renal,1.44 µM
same,TGI,UO-31 renal,2.8 µM
same,GI50,TK-10 renal,2.26 µM
same,TGI,TK-10 renal,5.45 µM
same,GI50,SF-295 CNS,1.68 µM
same,TGI,SF-295 CNS,3.07 µM
same,GI50,CAKI-1 renal,1.55 µM
same,TGI,CAKI-1 renal,2.93 µM
same,GI50,EKVX NSCLC,1.06 µM
same,TGI,EKVX NSCLC,2.53 µM
same,GI50,OVCAR-4 ovarian,1.44 µM
same,TGI,OVCAR-4 ovarian,2.99 µM
same,GI50,MCF7 breast,1.48 µM
same,TGI,MCF7 breast,3.07 µM
same,GI50,RXF 393 renal,1.79 µM
same,TGI,RXF 393 renal,3.27 µM
same,GI50,HS 578T breast,1.92 µM
same,TGI,HS 578T breast,4.42 µM
same,GI50,HCT-15 colon,1.61 µM
same,TGI,HCT-15 colon,3.09 µM
same,GI50,NCI-H226 lung,5.31 µM
same,TGI,NCI-H226 lung,33.4 µM
same,GI50,MALME-3M melanoma,1.44 µM
same,TGI,MALME-3M melanoma,2.84 µM
same,GI50,KM12 colon,1.82 µM
same,TGI,KM12 colon,3.36 µM
same,GI50,SW-620 colon,1.75 µM
same,TGI,SW-620 colon,3.51 µM
same,GI50,A498 renal,2.25 µM
same,TGI,A498 renal,7.96 µM
same,GI50,SF-268 CNS,1.95 µM
same,TGI,SF-268 CNS,4.79 µM
same,GI50,PC-3 prostate,1.99 µM
same,TGI,PC-3 prostate,6.2 µM
same,GI50,SK-OV-3 ovarian,2.94 µM
same,TGI,SK-OV-3 ovarian,14.1 µM
same,GI50,ACHN renal,2.08 µM
same,TGI,ACHN renal,4.64 µM
same,GI50,UACC-62 melanoma,1.64 µM
same,TGI,UACC-62 melanoma,3.12 µM
same,GI50,DU-145 prostate,1.81 µM
same,TGI,DU-145 prostate,3.42 µM
same,GI50,SNB-19 CNS,1.98 µM
same,TGI,SNB-19 CNS,4.26 µM
same,GI50,HL-60(TB) leukemia,1.82 µM
same,TGI,HL-60(TB) leukemia,4.28 µM
same,GI50,K-562 leukemia,1.45 µM
same,TGI,K-562 leukemia,4.78 µM
same,GI50,OVCAR-5 ovarian,1.92 µM
same,TGI,OVCAR-5 ovarian,3.89 µM
same,GI50,SK-MEL-28 melanoma,1.69 µM
same,TGI,SK-MEL-28 melanoma,3.13 µM
